Measurements as given in PubChem BioAssay (NCI).
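Exposure lasted 48 hours, with cells grown in 96-well plates and compounds tested at five concentrations. GI50 = concentration required for 50% inhibition of growth. At the TGI there is no net growth.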

Experiments:
Test in all cases: growth of human tumour cells (NCI), 48 h
[1] = tested on: SNB-19 CNS
[2] = tested on: K-562 leukemia
[3] = tested on: IGROV1 ovarian
[4] = tested on: U251 CNS
[5] = tested on: LOX IMVI melanoma
[6] = tested on: OVCAR-4 ovarian
[7] = tested on: SF-539 CNS
[8] = tested on: EKVX NSCLC
[9] = tested on: NCI-H522 lung
[10] = tested on: HOP-62 NSCLC

Row | Compound | GI50 [1] [µM] | TGI [1] [µM] | GI50 [2] [µM] | TGI [2] [µM] | GI50 [3] [µM] | TGI [3] [µM] | GI50 [4] [µM] | TGI [4] [µM] | GI50 [5] [µM] | TGI [5] [µM] | GI50 [6] [µM] | TGI [6] [µM] | GI50 [7] [µM] | TGI [7] [µM] | GI50 [8] [µM] | TGI [8] [µM] | GI50 [9] [µM] | TGI [9] [µM] | TGI [10] [µM]
1 | Fc1cc(C2=Nn3c(nnc3-c3cc(F)c(Cl)cc3Cl)SC2)c(Cl)cc1Cl | 22.7 | 93.4 | 17.8 | > 100 | 29.8 | > 100 | 20.4 | 64 | 21.6 | 45.6 | 34.5 | > 100 | 18.9 | 38 | 24.6 | 90.3 | 24.1 | > 100 | 
2 | CC12CCC3C(CCC4(O)C=CCCC34C=O)C1(O)CC(O)C2c1ccc(=O)oc1 (configuration not stated) |  | 0.527 |  | 1.29 |  | 0.35 |  | 0.197 |  | 0.216 |  | 0.102 |  | 0.0735 |  | 0.087 |  | 0.0622 | 0.0954
3 | Cc1ccc(NCCO)cc1 |  | > 100 |  | > 100 |  | > 100 |  | > 100 |  | > 100 |  | > 100 |  | > 100 |  | > 100 |  | > 100 | > 100
4 | COc1ccc(-c2nnc3c4ccccc4sn23)cc1 |  | > 100 |  | > 100 |  | > 100 |  | > 100 |  | > 100 |  | > 100 |  | > 100 |  | > 100 |  |  | > 100
5 | Cc1cc(C)c(S(=O)(=O)N(CCCCCCN)OCCCON(CCCCCCN)S(=O)(=O)c2c(C)cc(C)cc2C)c(C)c1 |  | 3.01 |  | > 100 |  | 3.22 |  | 3.15 |  | 3.19 |  | 3.38 |  | 3.98 |  | 3.19 |  | 3.27 | 3.6
6 | COc1ccc2c(c1)C(=O)/C(=C/c1ccccc1)C2 |  | > 100 |  | > 100 |  | > 100 |  | > 100 |  |  |  | > 100 |  |  |  |  |  | > 100 | > 100
7 | CCCCN(CCCC)C1(c2cc3ccccc3s2)CCCCC1 |  | 33.8 |  | 32.9 |  | 31.2 |  | 31.4 |  | 28.3 |  | 30 |  | 34.9 |  | 36.6 |  | 25.6 | 29.2
8 | CC1(C)CCCC2(C)[C@@H]1CC[C@]13C[C@](C)(CC[C@@H]21)[C@@H]3CO (some centres not stated) |  | > 100 |  | > 100 |  | > 100 |  | > 100 |  | > 100 |  | > 100 |  | > 100 |  |  |  | > 100 | > 100
9 | CCNc1nc2c(=O)n(C)c(=O)n(C)c2s1 |  | > 100 |  | > 100 |  | > 100 |  | > 100 |  | > 100 |  | > 100 |  | > 100 |  | > 100 |  | > 100 | > 100
10 | C=C1CC2(C)CCC(OC(=O)C3(C)OC3C)C(C)(OC(C)=O)C2CC1=C(C)C (configuration not stated) |  | > 100 |  | > 100 |  | > 100 |  | > 100 |  | > 100 |  | > 100 |  | > 100 |  | > 100 |  | > 100 | > 100
11 | O=C(O)CSc1nc2ccccc2[nH]1 |  | > 100 |  | > 100 |  | > 100 |  | > 100 |  | > 100 |  | > 100 |  |  |  | > 100 |  | > 100 | > 100
12 | ClCc1nnc2n1-c1ccc(Cl)cc1SC2 |  | 25.7 |  | > 100 |  | 8.09 |  | 19.8 |  | 2.82 |  | 12.6 |  | 13.2 |  | > 51.9 |  | 3.21 | 17.4
13 | NCCSC1(O)C(=O)c2ccccc2-c2ccccc21 (configuration not stated) |  | 2.86 |  | 2.43 |  | 3.73 |  | 2.16 |  | 0.717 |  | 0.556 |  | 2.67 |  | 3.11 |  | 2.95 | 3.22
14 | CCOC(=O)c1csc(NC(=O)CCN2CCOCC2)n1 |  | > 100 |  | > 100 |  | > 100 |  | > 100 |  | > 100 |  | > 100 |  | > 100 |  | > 100 |  |  | > 100
15 | COc1cc(CN(C)N2C(=O)c3cccc4cc([N+](=O)[O-])cc(c34)C2=O)cc(OC)c1OC |  | > 100 |  | > 100 |  | > 100 |  | > 100 |  |  |  | > 100 |  |  |  |  |  | > 100 | 51.9
16 | O=C(NC/C=C/CO)c1ccccc1 |  | > 100 |  | > 100 |  | > 100 |  | > 100 |  | > 100 |  | > 100 |  | > 100 |  | > 100 |  | > 100 | > 100
17 | O=c1n(Cc2ccccc2)c2ccccc2n1CC1CS1 (configuration not stated) |  | > 100 |  | > 100 |  | > 100 |  |  |  | > 100 |  | > 100 |  | > 100 |  | > 100 |  | > 100 | > 100
